Tested on: DMS-114 complex spheroids with HUVEC/MSC, growth % test/control
Test: Anticancer human tumor DMS-114 cell line growth inhibition [AhR];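 note: spheroids exposed to agents for 7 days before readout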;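 for viability, T/C: 100% = DMSO vehicle control wells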
Details: for IC50: curve of first compound; for viability, T/C: stronger effect = lower value
Description: Multicellular complex tumor spheroid response to aryl hydrocarbon receptor antagonists in combination with a variety of drugs and investigational agents in selected tumor cell lines
The current study was undertaken to assess response to aryl hydrocarbon receptor antagonists in combination with standard-of-care drugs and investigational agents in solid tumor complex spheroid models. Complex spheroids include a stromal component modeled by human endothelial cells (HUVEC) and fibroblasts modeled by human mesenchymal stem cells (MSCs). The concentration ranges selected for each drug and investigational agent were based upon clinically achievable concentrations if the clinical Cmax of the agent was known.
Compounds. The drugs and investigational agents: BAY 2416964 (NSC825713), GNF351 (NSC835774), CH-223191 (NSC835775), CPI-455 (NSC825282), aza-TdCyd (NSC777586), decitabine (NSC127716), belinostat (NSC758774), entinostat (NSC756642), pevonedistat (NSC761192), tazemetostat (NSC777109), talazoparib (NSC765396), olaparib (NSC753686), selinexor (NSC780203), nedisertib (M3814, NSC802822), bortezomib (NSC756655), venetoclax (NSC766270), doxorubicin (NSC123127), elimusertib (BAY189344, NSC800525), ceralasertib (AZD6738, NSC777638), TAK-243 (NSC785004), alisertib (NSC759677), etoposide (NSC141540), topotecan (NSC609699), eribulin (NSC707389), gemcitabine (NSC613327), carboplatin (NSC241240), cisplatin (NSC119875), and SN-38 (NSC673596) were obtained from the National Cancer Institute (NCI) Developmental Therapeutics Program Chemical Repository (32). The FDA-approved anticancer drug set is available from the Developmental Therapeutics Program at https://dtp.cancer.gov/organization/dscb/obtaining/available plates.htm. […] The stock solutions were prepared in dimethyl sulfoxide (DMSO, Sigma-Aldrich, St. Louis, MO, cat. D2650), except for the platinum compounds which were prepared in saline (Quality Biological, Gaithersburg, MD, cat. 114-055-101), at 800-fold the tested concentration and stored at -70 degrees C prior to their use. All drugs and investigational agents were tested over a range starting from a high concentration at or near the clinical Cmax and decreasing in half-log increments. If the clinical Cmax for an agent had not been determined, the highest concentration tested was 10 microM (Table 1).
Cell Culture. All cells were maintained in an incubator at 37 degrees C and 5% CO2 with 95% humidity. The PDC lines were cultured according to standard operating procedures established by the NCI PDMR (https://pdmr.cancer.gov). Briefly, all PDCs were thawed and cultured in Matrigel-coated flasks prepared with a working solution of 1X Ham's F-12 nutrient mix, without supplementation (Invitrogen, Waltham, MA, cat. 11765054), 100 U/mL penicillin-streptomycin (Invitrogen, cat. 15140122), and 2.5% Matrigel (Corning Inc., Corning, NY, cat. 354248) for the first three passages. All PDCs were cultured in complete DMEM/F-12 media containing advanced DMEM/F-12 (Invitrogen, cat. 12634028), 4.9% defined fetal bovine serum, heat inactivated (HyClone Laboratories Inc., Logan, UT, cat. SH30070.03HI), 389 ng/mL hydrocortisone (Sigma-Aldrich, cat. H4001), 9.7 ng/mL human EGF recombinant protein (Invitrogen, cat. PHG0313), 23.4 microg/mL adenine (Sigma-Aldrich, cat. A2786), 97.3 U/mL penicillin-streptomycin (Invitrogen, cat. 15140122), 1.9 mM L-glutamine (Invitrogen, cat. 25030081), and 9.7 microM Y-27632 dihydrochloride (Tocris Bioscience, Bristol, United Kingdom, cat. 1254). The PDCs were cultured in complete DMEM/F12 media without 10 microM Y-27632 dihydrochloride for at least two passages prior to the screen. The established cell lines NCI-H1341 and […] were cultured in DMEM/F-12, HEPES (Invitrogen, cat. 11330032), 5% defined fetal bovine serum (HyClone Laboratories Inc., cat. SH30070.03), ITS premix universal culture supplement [insulin (5 microg/mL), transferrin (5 microg/mL), and selenious acid (5 ng/mL)] […]

O=C(c1cc(Cc2n[nH]c(=O)c3ccccc23)ccc1F)N1CCN(C(=O)C2CC2)CC1 + Cc1cncc(-c2nc(NCCc3c[nH]c4ccccc34)c3ncn(C(C)C)c3n2)c1
IC50 (second compound 0.1 µM): 9.12 µM | IC50 (second compound 0.316 µM): 9.82 µM | IC50 (second compound 1 µM): > 10 µM | IC50 (second compound 3.16 µM): > 10 µM | IC50 (second compound 10 µM): < 0.0316 µM | viability, T/C (second compound 0.1 µM, first compound 0.0316 µM): 92.1% | viability, T/C (second compound 0.1 µM, first compound 0.1 µM): 102% | viability, T/C (second compound 0.1 µM, first compound 0.316 µM): 105% | viability, T/C (second compound 0.1 µM, first compound 1 µM): 98.1% | viability, T/C (second compound 0.1 µM, first compound 3.16 µM): 91.4% | viability, T/C (second compound 0.1 µM, first compound 10 µM): 46.4% | viability, T/C (second compound 0.316 µM, first compound 0.0316 µM): 108% | viability, T/C (second compound 0.316 µM, first compound 0.1 µM): 96% | viability, T/C (second compound 0.316 µM, first compound 0.316 µM): 102% | viability, T/C (second compound 0.316 µM, first compound 1 µM): 102% | viability, T/C (second compound 0.316 µM, first compound 3.16 µM): 89.4% | viability, T/C (second compound 0.316 µM, first compound 10 µM): 49.1% | viability, T/C (second compound 1 µM, first compound 0.0316 µM): 96.7% | viability, T/C (second compound 1 µM, first compound 0.1 µM): 94.4% | viability, T/C (second compound 1 µM, first compound 0.316 µM): 76.1% | viability, T/C (second compound 1 µM, first compound 1 µM): 95.2% | viability, T/C (second compound 1 µM, first compound 3.16 µM): 83.7% | viability, T/C (second compound 1 µM, first compound 10 µM): 58.3% | viability, T/C (second compound 3.16 µM, first compound 0.0316 µM): 89.9% | viability, T/C (second compound 3.16 µM, first compound 0.1 µM): 92.2% | viability, T/C (second compound 3.16 µM, first compound 0.316 µM): 77.9% | viability, T/C (second compound 3.16 µM, first compound 1 µM): 85% | viability, T/C (second compound 3.16 µM, first compound 3.16 µM): 73.9% | viability, T/C (second compound 3.16 µM, first compound 10 µM): 50.4% | viability, T/C (second compound 10 µM, first compound 0.0316 µM): 31.8% | viability, T/C (second compound 10 µM, first compound 0.1 µM): 46.6% | viability, T/C (second compound 10 µM, first compound 0.316 µM): 35.3% | viability, T/C (second compound 10 µM, first compound 1 µM): 37% | viability, T/C (second compound 10 µM, first compound 3.16 µM): 27.8% | viability, T/C (second compound 10 µM, first compound 10 µM): 22.1%

Source: PubChem BioAssay AID1919008 (Molecular Pharmacology Branch, DTP, NCI, 2023)
